{
  "source": "patent US20220332742A1",
  "about": "“Naringin-Loaded Metal Organic Frameworks” (Colgate-Palmolive Company, priority 2021, published 2022)",
  "format_in_all_cases": "cell-based",
  "key": {"[1]": {"tested_on": "H1299 mouse lung tumor cells", "test": "Tumor cell cytotoxicity, ATP viability assay (ATPLite 1-step Luminescence)", "procedure": "The ability of naringin-loaded MIL-101(Fe) to kill H1299 […] lung tumor cells is evaluated using the ATP viability assay (Perkin Elmer, ATPLite 1-step Luminescence Assay). H1299 cells are seeded at 5000 cells/mL in white 96-well plates and incubated with either MIL-101(Fe), naringin or naringin-loaded MIL-101(Fe) (Example 1(d) at the following concentrations: 0, 3.125, 25, 50, 100, and 200 μg/mL. The ATP kit solution is then added to each well, and a 96-well microplate reader is used to measure total luminescence. Cell viability is calculated as a percentage of the luminescence of the untreated control. The results are shown in the following table: […]"}, "IL-2": {"tested_on": "IL-2", "test": "IL-2 release from EL4 T cells, ELISA", "conditions": "24 hours", "procedure": "(§1) The ability of naringin-loaded MIL-101(Fe) to promote the release of IL-2 and TNF-alpha from EL4 T cells is evaluated. Enzyme-linked immunosorbent assay (ELISA) is performed according to the manufacturer specifications. Briefly, EL-4 T-cells are incubated in 96-well plates at an initial density of 8000 cells/well. The cell cultures are treated with either MIL-101(Fe), naringin or naringin-loaded MIL-101(Fe) (Example 1(d)) at the following concentrations in PBS: 0, 100, and 200 μg/mL. The plates are incubated for 24 hours at 37° C. in 5% CO2 atmosphere. The solutions are then transferred to a V-shaped 96 well plate and centrifuged at 500 g for 5 minutes. The supernatant solutions are then collected and the recommend ELISA protocol is performed. Absorbance at 450 and 540 nm is measured using a 96-well plate reader, and the results are compared to cytokine standard solutions."}, "[2]": {"test": "EL4 T cell viability, ATP viability assay (ATPLite 1-step Luminescence)", "conditions": "mouse, EL4 T cells", "procedure": "The ability of naringin-loaded MIL-101(Fe) to promote the viability of EL4 T cells is evaluated using the ATP viability assay (Perkin Elmer, ATPLite 1-step Luminescence Assay). EL4 T cells are seeded at 8000 cells/mL in white 96-well plates and incubated with either naringin or naringin-loaded MIL-101(Fe) (Example 1(d)) at the following concentrations: 3.125, 6.25, 12.5, 25, 50, 100, and 200 μg/mL. The ATP kit solution is then added to each well, and a 96-well microplate reader is used to measure total luminescence. Cell viability is calculated as a percentage of the luminescence of the untreated control."}, "Bacillus subtilis": {"tested_on": "Bacillus subtilis", "test": "Antibacterial activity, MIC by micro-dilution method", "conditions": "TSB, lowest concentration that completely inhibits growth", "method": "The antibacterial activity of the prepared MOF complexes is determined against Bacillus subtilis, by calculating minimal inhibitory concentration (MIC) using the micro-dilution method. Briefly, test samples are diluted with TSB solution to 2 mg/mL, and then further serial dilutions are prepared in TSB. Bacterial cultures are incubated in TSB for 16 hours, then 100 microliter suspensions are transferred to 4 mL of fresh medium and incubated for another 6 hours in order to reach mid-log phase stage. Then, the bacteria are diluted to provide 10^6 colony-forming units per mL (CFU/mL) based on OD600 measurement. […] The tested products are the naringin-loaded MOF prepared from 0.5 mg/ml naringin in ethanol, 0.5 mg/mL naringin in 1:4 ethanol/water solution, and 1 mg/mL naringin in 1:2.2 ethanol/water solution."}, "TNF-alpha": {"tested_on": "TNF-alpha", "test": "TNF-alpha release from EL4 T cells, ELISA", "conditions": "24 hours", "procedure": "as §1"}, "[3]": {"conditions": "3.125 µg/mL of agent, % of untreated control"}},
  "data": [
    {"smiles": "C[C@@H]1O[C@@H](O[C@H]2[C@H](Oc3cc(O)c4c(c3)O[C@H](c3ccc(O)cc3)CC4=O)O[C@H](CO)[C@@H](O)[C@@H]2O)[C@H](O)[C@H](O)[C@H]1O", "note": "[Naringin]", "values": [
      {"measurement": "Cell viability (%)", "setting": "[1]; [3]", "value": 85.97, "unit": "%"},
      {"measurement": "Cell viability (%)", "setting": "[1]; 25 µg/mL of agent", "value": 73.26, "unit": "%"},
      {"measurement": "Cell viability (%)", "setting": "[1]; 50 µg/mL of agent", "value": 80.15, "unit": "%"},
      {"measurement": "Cell viability (%)", "setting": "[1]; 100 µg/mL of agent", "value": 87.10, "unit": "%"},
      {"measurement": "Cell viability (%)", "setting": "[1]; 200 µg/mL of agent", "value": 83.23, "unit": "%"},
      {"measurement": "IL-2 concentration", "setting": "IL-2; 100 µg/mL of agent", "value": 15.22, "unit": "pg/mL"},
      {"measurement": "IL-2 concentration", "setting": "IL-2; 200 µg/mL of agent", "value": 16.49, "unit": "pg/mL"},
      {"measurement": "viability at 3.125 µg/mL", "setting": "[2]; [3]", "value": 77, "unit": "%"},
      {"measurement": "viability at 6.25 µg/mL", "setting": "[2]; 6.25 µg/mL of agent", "value": 75.8, "unit": "%"},
      {"measurement": "viability at 12.5 µg/mL", "setting": "[2]; 12.5 µg/mL of agent", "value": 72.1, "unit": "%"},
      {"measurement": "viability at 25 µg/mL", "setting": "[2]; 25 µg/mL of agent", "value": 67, "unit": "%"},
      {"measurement": "viability at 50 µg/mL", "setting": "[2]; 50 µg/mL of agent", "value": 74.9, "unit": "%"},
      {"measurement": "viability at 100 µg/mL", "setting": "[2]; 100 µg/mL of agent", "value": 80.3, "unit": "%"},
      {"measurement": "viability at 200 µg/mL", "setting": "[2]; 200 µg/mL of agent", "value": 84.7, "unit": "%"},
      {"measurement": "MIC", "setting": "Bacillus subtilis", "value": 5000, "unit": "µg/mL"},
      {"measurement": "TNF-alpha concentration", "setting": "TNF-alpha; 100 µg/mL of agent", "value": 10.64, "unit": "pg/mL"},
      {"measurement": "TNF-alpha concentration", "setting": "TNF-alpha; 200 µg/mL of agent", "value": 9.92, "unit": "pg/mL"}
    ]}
  ]
}
